Source: US20220041583A1, “IMMUNOMODULATORS, COMPOSITIONS AND METHODS THERE OF” (BETTA PHARMACEUTICALS CO., LTD, priority 2018, published 2022)
pIC50: −log10 of the molar value.

Tests used:
Pharmacokinetic Assay = format: in vivo; conditions: rat; male rats, single oral (intragastric) dose 25 mg/kg, plasma
Method: Healthy adult male rats were subjected to single-dose of the test compounds with 10% DMSO, 10% Kolliphor® HS 15 and 80% Saline as excipients, and the rats were giving oral administration (intragastric administration) with the compounds at a dose of 25 mg/kg, Before the experiment, the animals were fasted overnight, and the fasting time last from 12 hrs prior to the administration to 4 hrs after the administration. Time of blood collection: 15 min, 30 min, 1 h, 2 h, 4 h, 7 h, 24 h. Approximately 0.3 mL of whole blood was collected from retro-orbital venous sinus, and placed into tubes that contained EDTA as an anticoagulant. The samples were centrifuged at 4° C. and 4000 rpm for 5 min. The plasma was transferred into centrifuge tubes, and stored at −20° C. till being analyzed. Concentrations of test compounds in the plasma samples were analyzed with liquid chromatography-tandem mass spectrometry (LC-MS/MS). Plasma concentration-time data of individual animals was analyzed using WinNonlin (version 4.1; Pharsight) software. Non-compartmental model was introduced in concentration analysis. The pharmacokinetic parameters of the test compounds were calculated.

PD-1/PD-L1 = target: T1, PD-1/PD-L1 (Homo sapiens, UniProt Q9NZQ7); assay: PD-1/PD-L1 homogenous time-resolved fluorescence (HTRF) binding assay
T1 construct: Recombinant human PD-L1 protein (19-238) with a His-tag at the C-terminus; purchased AcroBiosystems PD1-H5229 (PD-L1); PD1-H5257 (PD-1)
T1 sequence (Q9NZQ7 19-238): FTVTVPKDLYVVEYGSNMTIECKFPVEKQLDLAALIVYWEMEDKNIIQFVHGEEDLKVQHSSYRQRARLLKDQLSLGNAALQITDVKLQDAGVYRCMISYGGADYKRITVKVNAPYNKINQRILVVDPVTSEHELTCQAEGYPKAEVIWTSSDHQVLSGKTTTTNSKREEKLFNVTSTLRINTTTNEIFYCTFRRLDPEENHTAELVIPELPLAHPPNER
Method: Resolved Fluorescence (HTRF) Binding Assay
The assays were conducted in a standard black 384-well polystyrene plate with a final volume of 20 μL. Inhibitors were first serially diluted in DMSO and then added to the plate wells before the addition of other reaction components. The final concentration of DMSO in the assay was 1%. The assays were carried out at 25° C. in the PBS buffer (pH 7.4) with 0.05% Tween-20 and 0.1% BSA. Recombinant human PD-L1 protein (19-238) with a His-tag at the C-terminus was purchased from AcroBiosy stems (PD1-H5229). Recombinant human PD-1 protein (25-167) with Fc tag at the C-terminus was also purchased from AcroBiosystems (PD1-H5257). PD-L1 and PD-1 proteins were diluted in the assay buffer and 10 μL was added to the plate well. Plates were centrifuged and proteins were preincubated with inhibitors for 40 min. The incubation was followed by the addition of 10 μL of HTRF detection buffer supplemented with Europium cryptate-labeled anti-human IgG (PerkinElmer-AD0212) specific for Fc and anti-His antibody conjugated to SureLight®-Allophycocyanin (APC, PerkinElmer-AD0059H). After centrifugation, the plate was incubated at 25° C. for 60 min. Before reading on a PHERAstar FS plate reader (665 nm/620 nm ratio). Final concentrations in the assay were […] PD1, 10 nM PD-L1, 1 nM europium anti-human IgG and 20 nM anti-His-Allophycocyanin. IC50 determination was performed by fitting the curve of percent control activity versus the log of the inhibitor concentration using the GraphPad Prism 5.0 software.

SMILES | AUC (Pharmacokinetic Assay) | Cmax (Pharmacokinetic Assay) | Tmax (Pharmacokinetic Assay) | half-life (Pharmacokinetic Assay) | pIC50 (PD-1/PD-L1; Table 6, numeric values) | pIC50 (PD-1/PD-L1; Table 6, class symbols)
Cc1c(-c2ccccc2)cccc1-c1nc2cc(CN3CCCC[C@H]3C(=O)O)c(OCC#N)cc2o1 [Com. EX. No. 1, 1-((6-(cyanomethoxy)-2-(2-methyl-[1,1′-biphenyl]-3-yl)benzo[d]oxazol-5-yl)methyl)piperidine-2-carboxylic acid, reference compound] | 5.84 µg·h/mL | 881 ng/mL | 0.5 h | 3.42 h |  | 
Cc1c(-c2ccccc2)cccc1-c1nc2cc(CN3CCC[C@H]3C(=O)O)c(Cl)cc2o1 [Example 20, ((6-chloro-2-(2-methyl-[1,1′-biphenyl]-3-yl)benzo[d]oxazol-5-yl)methyl)-L-proline] | 74.5 µg·h/mL | 8270 ng/mL | 1 h | 7.52 h | 8.74 | 
Cc1c(-c2ccccc2)cccc1-c1nc2cc(CN3CCC[C@H]3C(=O)O)c(C(F)(F)F)cc2o1 [Example 28, ((2-(2-methyl-[1,1′-biphenyl]-3-yl)-6-(trifluoromethyl)benzo[d]oxazol-5-yl)methyl)-L-proline] | 319 µg·h/mL | 14400 ng/mL | 0.3 h | 41.2 h | 8.85 | 
COc1cc2oc(-c3cccc(-c4ccccc4)c3C)nc2cc1CNCCO [Com. EX. No. 2, 2-(((6-methoxy-2-(2-methyl-[1,1′-biphenyl]-3-yl)benzo[d]oxazol-5-yl)methyl)amino)ethan-1-ol, reference compound] | 5.15 µg·h/mL | 329 ng/mL | 4 h | 14.4 h |  | 
Cc1cc2oc(-c3cccc(-c4ccccc4)c3C)nc2cc1CN1CCCC[C@H]1C(=O)O [Example 22, (S)-1-((6-methyl-2-(2-methyl-[1,1′-biphenyl]-3-yl)benzo[d]oxazol-5-yl)methyl)piperidine-2-carboxylic acid] | 151 µg·h/mL | 10300 ng/mL | 1 h | 42.3 h | 8.74 | 
Cc1c(-c2ccccc2)cccc1-c1nc2cc(CN3CCCC[C@H]3C(=O)O)c(OC(F)F)cc2o1 [Example 29, (S)-1-((6-(difluoromethoxy)-2-(2-methyl-[1,1′-biphenyl]-3-yl)benzo[d]oxazol-5-yl)methyl)piperidine-2-carboxylic acid] | 201 µg·h/mL | 23300 ng/mL | 1 h | 4.27 h |  | 8.00 to 10.00
CSc1cc2oc(-c3cccc(-c4ccccc4)c3C)nc2cc1CN1CCC[C@H]1C(=O)O [Example 2, ((2-(2-methyl-[1,1′-biphenyl]-3-yl)-6-(methylthio)benzo[d]oxazol-5-yl)methyl)-L-proline] | 125 µg·h/mL | 12200 ng/mL | 1 h | 17.7 h |  | 8.00 to 10.00
Cc1c(-c2ccccc2)cccc1-c1nc2cc(CN3CCOC[C@H]3C(=O)O)c(OC(F)F)cc2o1 [Example 39, (S)-4-((6-(difluoromethoxy)-2-(2-methyl-[1,1′-biphenyl]-3-yl)benzo[d]oxazol-5-yl)methyl)morpholine-3-carboxylic acid] | 121 µg·h/mL | 31000 ng/mL | 1 h | 10.8 h | 8.96 | 
Cc1c(-c2nc3cc(CN4CCC[C@H]4C(=O)O)c(OC(F)F)cc3o2)cccc1-c1ccccc1F [Example 52, ((6-(difluoromethoxy)-2-(2′-fluoro-2-methyl-[1,1′-biphenyl]-3-yl)benzo[d]oxazol-5-yl)methyl)-L-proline] | 246 µg·h/mL | 20700 ng/mL | 2 h | 7.72 h |  | 7.00 to 8.00
Cc1c(-c2ccccc2)cccc1-c1nc2cc(CN3CCC[C@H]3C(=O)O)c(OC(F)F)cc2o1 [Example 36, ((6-(difluoromethoxy)-2-(2-methyl-[1,1′-biphenyl]-3-yl)benzo[d]oxazol-5-yl)methyl)-L-proline] | 119 µg·h/mL | 10200 ng/mL | 0.5 h | 9.3 h |  | 8.00 to 10.00
Cc1c(-c2ccccc2)cccc1-c1nc2cc(CN[C@H](C)C(=O)O)c(OCC(F)(F)F)cc2o1 [Example 56, ((2-(2-methyl-[1,1′-biphenyl]-3-yl)-6-(2,2,2-trifluoroethoxy)benzo[d]oxazol-5-yl)methyl)-D-alanine] |  |  |  |  |  | 7.00 to 8.00
